The results in this text go back to ChEMBL document CHEMBL1201862, “PubChem BioAssay data set” (2004).

Test systems include SF-295; CAKI-1; M14; NCI-H23; HCT-116; NCI-H226; UO-31; OVCAR-4; A498; HT-29; A549; ACHN; SK-MEL-2; EKVX; U-251; MCF7; PC-3; DU-145; MDA-N.
Common to all, as to test: NCI anticancer screen, dose series, 48 h

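Grown in 96-well plates, cells were treated for 48 hours with each compound at five concentrations. Insufficient inhibition: endpoint recorded as highest concentration tested. GI50: concentration for 50% inhibition of growth.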 Calls of active or inactive are those of the source. Cut-off read from the data, not from the text of the source: active = GI50 up to about 1.1 µM and inactive = higher. Where only a bound is given, the exact number is not on record here.

For `OCCN1CCN(CC/C=C2/c3ccccc3Sc3ccc(Cl)cc32)CC1`, the GI50 in the assay on SF-295 is 18.4 µM (inactive); in the assay on CAKI-1 it was 10.5 µM (inactive); with M14, 2.3 µM (inactive); with NCI-H23, 15.7 µM (inactive); in the assay on HCT-116, 8.47 µM (inactive); in the assay on NCI-H226 it was 14.6 µM (inactive). Moreover, the GI50 in the assay on UO-31 is 13.3 µM (inactive); in the assay with OVCAR-4, 17.2 µM (inactive); in the assay on A498, 14.5 µM (inactive); in the assay on HT-29, 2.57 µM (inactive); in the assay with A549, 15.6 µM (inactive); in the assay on ACHN, 16 µM (inactive). The GI50 in the assay with SK-MEL-2 was 14.9 µM (inactive); with EKVX it was 16.8 µM (inactive); in the assay on U-251, 12.9 µM (inactive).

On to `Cc1ccc(C)c(N2C(=O)C(=O)C(c3nc4ccccc4o3)/C(=N\NC(=O)c3ccccc3O)C2=O)c1` (centres undefined), for which the GI50 in the assay on SF-295 is 56.2 µM (inactive); with CAKI-1 it was 3.75 µM (inactive); in the assay with M14, 32.3 µM (inactive); in the assay with NCI-H23, 10.7 µM (inactive); with HCT-116, 17.5 µM (inactive); in the assay on NCI-H226, 12.2 µM (inactive). Also, the GI50 in the assay with UO-31 is 16.3 µM (inactive); in the assay on OVCAR-4 it was 11.7 µM (inactive); in the assay on A498 it was 13 µM (inactive); in the assay with HT-29 it was 32.1 µM (inactive); in the assay on A549, 13.6 µM (inactive); with ACHN it was 12 µM (inactive). The GI50 with SK-MEL-2 was 29.6 µM (inactive); in the assay on EKVX, 22.8 µM (inactive); with U-251, 24.4 µM (inactive).

Consider `O=C(O)/C(Cl)=C(\Cl)C(=O)c1ccccc1`, for which the GI50 in the assay with SF-295, in the assay with CAKI-1, in the assay on M14, in the assay on NCI-H23, in the assay on HCT-116 and with NCI-H226 was > 100 µM (inactive) throughout. The GI50 in the assay with UO-31, in the assay on OVCAR-4, in the assay on A498, with HT-29, with A549 and with ACHN was > 100 µM (inactive) each time. For the same compound, the GI50 with SK-MEL-2, in the assay with EKVX and in the assay on U-251 was > 100 µM (inactive) throughout.

For the compound `CC(=O)OCc1cc(=O)n(C)c2c3c4c(cc12)c(C)cc(=O)n4CO3`, the GI50 is 1.57 µM (inactive) in the assay with SF-295; 1.95 µM (inactive) with CAKI-1; 2.3 µM (inactive) in the assay on MCF7; 1.68 µM (inactive) in the assay on NCI-H23; 0.367 µM (active) in the assay with HCT-116; 1.58 µM (inactive) with NCI-H226. Also, the GI50 in the assay with UO-31 is 1.64 µM (inactive); in the assay with OVCAR-4 it was 1.42 µM (inactive); in the assay on A498, 2.38 µM (inactive); in the assay on HT-29, 1.49 µM (inactive); with A549, 1.69 µM (inactive); in the assay with SK-MEL-2 it was 1.75 µM (inactive). For the same compound, the GI50 in the assay with EKVX was 2.44 µM (inactive); with U-251, 1.23 µM (inactive).

In the case of `CN(C)c1ccc(C(N)=O)cn1`, the GI50 in the assay with SF-295, in the assay on MCF7, with NCI-H23, with HCT-116, with PC-3 and in the assay on DU-145 was > 100 µM (inactive) in each case. The GI50 with UO-31, with MDA-N, in the assay with HT-29, in the assay with A549, with ACHN and in the assay on SK-MEL-2 was > 100 µM (inactive) each time. Also, the GI50 in the assay with EKVX and in the assay with U-251 was > 100 µM (inactive) each time.

As for `O=C1OC(c2ccccc2)(c2ccccc2)c2ccc3ccc(F)cc3c21`, the GI50 with SF-295 is 13 µM (inactive); in the assay on CAKI-1, 33.3 µM (inactive); with M14, > 100 µM (inactive); with NCI-H23 it was 52.8 µM (inactive); in the assay with HCT-116, 27 µM (inactive); in the assay with NCI-H226, > 100 µM (inactive). In addition, the GI50 was 79.4 µM (inactive) with UO-31; > 100 µM (inactive) in the assay on OVCAR-4; > 100 µM (inactive) in the assay with A498; 13.6 µM (inactive) in the assay with HT-29; 19.3 µM (inactive) with A549; 49.8 µM (inactive) in the assay on ACHN. The GI50 with SK-MEL-2 is > 100 µM (inactive); in the assay on EKVX, 53.3 µM (inactive); in the assay on U-251, 77.1 µM (inactive).

Take `CC(C)c1cccc2sc(NC(=O)C(=O)CC(=O)c3ccc(F)cc3)nc12`: the GI50 in the assay with SF-295, in the assay with CAKI-1, in the assay with M14, with NCI-H23, in the assay with HCT-116 and in the assay with NCI-H226 was > 100 µM (inactive) each time. For the same compound, the GI50 in the assay with UO-31, with OVCAR-4, in the assay with A498, in the assay on HT-29, in the assay on A549 and in the assay with ACHN was > 100 µM (inactive) throughout. The GI50 in the assay on SK-MEL-2, in the assay with EKVX and in the assay with U-251 was > 100 µM (inactive) in each case.

Regarding `CCOC(=O)C(=[N+]=[N-])C(=O)CN1C(=O)C2CC(C)=C(C)CC2C1O` (centres undefined), the GI50 in the assay on SF-295 was > 100 µM (inactive); in the assay on MCF7 it was > 100 µM (inactive); in the assay with M14, > 100 µM (inactive); with NCI-H23 it was > 100 µM (inactive); in the assay with HCT-116 it was > 100 µM (inactive); in the assay on NCI-H226, 68.2 µM (inactive). Besides, the GI50 with PC-3, with DU-145, in the assay with UO-31, in the assay on MDA-N, in the assay on HT-29 and with A549 was > 100 µM (inactive) in each case. Besides, the GI50 in the assay with ACHN, with SK-MEL-2, in the assay with EKVX and in the assay with U-251 was > 100 µM (inactive) in each case.

Turning to `CC(C)(C)OC(=O)NC(Cc1ccccc1)C(=S)N1CCCC1` (centres undefined), the GI50 was 95.3 µM (inactive) in the assay with SF-295; > 50.9 µM (inactive) in the assay on CAKI-1; > 100 µM (inactive) in the assay with M14; 48.8 µM (inactive) in the assay on NCI-H23; > 100 µM (inactive) in the assay with HCT-116; > 100 µM (inactive) in the assay on NCI-H226. Further, the GI50 in the assay with UO-31 is 40.4 µM (inactive); in the assay on OVCAR-4 it was 86.3 µM (inactive); with A498, > 100 µM (inactive); in the assay on HT-29 it was 85.7 µM (inactive); in the assay with A549, > 100 µM (inactive); in the assay with ACHN it was > 100 µM (inactive). Besides, the GI50 in the assay on SK-MEL-2 is > 100 µM (inactive); in the assay with EKVX it was 52.6 µM (inactive); in the assay with U-251, > 100 µM (inactive).

For `C=C(C=O)[C@@H]1C2OC(=O)C(=C)[C@@H]2CC(O)[C@@]1(C)CC` (some centres undefined), the GI50 was 22.4 µM (inactive) in the assay on SF-295; 9.38 µM (inactive) in the assay with CAKI-1; 4.83 µM (inactive) with M14; 7.23 µM (inactive) in the assay on NCI-H23; 3.78 µM (inactive) with HCT-116; 32 µM (inactive) with NCI-H226. Also, the GI50 with UO-31 was 21.3 µM (inactive); in the assay on OVCAR-4 it was 11.5 µM (inactive); in the assay with A498 it was 17.1 µM (inactive); with HT-29 it was 6.75 µM (inactive); in the assay with A549 it was 32.8 µM (inactive); in the assay on ACHN, 13.7 µM (inactive). Also, the GI50 in the assay with SK-MEL-2 was 13.2 µM (inactive); in the assay with EKVX, 18.2 µM (inactive); in the assay with U-251, 11.7 µM (inactive).

Consider `C=C1CCC([N+](=O)[O-])[C@](C)(N=O)CC[C@@H]2C1CC2(C)C` (some centres undefined), for which the GI50 is 17.9 µM (inactive) in the assay with SF-295; 34 µM (inactive) with CAKI-1; 16.6 µM (inactive) with MCF7; 27.4 µM (inactive) in the assay with M14; 17.2 µM (inactive) in the assay on NCI-H23; 14.8 µM (inactive) in the assay with HCT-116. The GI50 with NCI-H226 is 16 µM (inactive); in the assay with PC-3, 26.4 µM (inactive); in the assay on DU-145, > 100 µM (inactive); in the assay with UO-31 it was 16.3 µM (inactive); in the assay on OVCAR-4, 24.7 µM (inactive); with MDA-N it was 11.6 µM (inactive). For the same compound, the GI50 in the assay with HT-29 was 19.9 µM (inactive); with A549 it was 18.5 µM (inactive); in the assay on ACHN, 37 µM (inactive); in the assay with SK-MEL-2, > 10 µM (inactive); with EKVX, 19 µM (inactive); in the assay with U-251, 21.4 µM (inactive).

As for `NCCCNCCSP(=O)(O)O` [AMIFOSTINE], the GI50 was > 750 µM (inactive) in the assay on SF-295; > 678 µM (inactive) with CAKI-1; > 750 µM (inactive) with MCF7; > 750 µM (inactive) in the assay on NCI-H23; 743 µM (inactive) in the assay with HCT-116; > 703 µM (inactive) with NCI-H226. For the same compound, the GI50 with UO-31 is 535 µM (inactive); in the assay on OVCAR-4, > 635 µM (inactive); in the assay with A498, > 75 µM (inactive); in the assay on HT-29 it was > 750 µM (inactive); with A549, > 519 µM (inactive); with SK-MEL-2, > 242 µM (inactive). The GI50 in the assay with EKVX and in the assay on U-251 was > 750 µM (inactive) each time.

In the case of `Cn1c(/C=C/CO)c(CO)c2c1C(=O)C=C(N1CC1)C2=O` [APAZIQUONE], the GI50 with SF-295 is < 0.01 µM (active); in the assay on CAKI-1, < 0.01 µM (active); with MCF7, < 0.01 µM (active); in the assay with HCT-116 it was 0.0109 µM (active); in the assay on NCI-H226, 0.0185 µM (active); in the assay with UO-31, 0.0142 µM (active). Moreover, the GI50 in the assay with OVCAR-4 is 0.0516 µM (active); with A498, < 0.0124 µM (active); in the assay with HT-29, < 0.01 µM (active); with A549, < 0.01 µM (active); with SK-MEL-2, < 0.01 µM (active); in the assay on EKVX, 0.0463 µM (active). In addition, the GI50 in the assay on U-251 is < 0.01 µM (active).
